Results as given in patent publication EP0354047A2, “Herbicidal method using atrazine” (MAY & BAKER LIMITED, priority 1988, dated 1990).

Legend:
Eleusine indica [1] = test: Experiment 2: glasshouse experiment, seedlings at 4-leaf stage, percentage phytotoxicity after 19 days; format: in vivo
Experimental: Agricultural surfactant - nonylphenol ethylene oxide condensate containing 9 moles ethylene oxide (in a commercial composition) was added to all spray dilutions to give 0.2% v/v concentration. […] The ED50 values were as follows:- The results were then used to plot an isobole with a "two-sided effect" according to the methods of […] op. cit. The isobole produced, shown hereinafter in Figure 1 was clearly a type III curve ([…]., page 75), characteristic of synergism.

maize var.Irla = test: Experiment 5: glasshouse, crop plants at 3 leaf stage, percentage phytotoxicity after 12 days; settings: for % crop phytotoxicity Maize (3 leaves): Atrazine 0 g/ha
Experimental: An experiment was carried out to determine the biological interaction between atrazine and Compound 74 on maize. A wide range of dose rates of atrazine i.e. 250, 500, 1000 and 2000 g/ha (in a commercial suspension concentrate formulation containing 500g/l w/v atrazine) and of Compound 74 i.e. 31, 63, 125, 250, 1000 and 2000 g/ha (in a composition according to Example 2 as described hereinafter) were applied in a spray volume of 290litres/ha to four replicate 10cm square plastic plant pots of loam soil containing one maize plant, at the 3 leaf growth stage. Agricultural surfactant ('Agral') was added to the spray dilutions to give 0.2%v/v concentration.
After spraying the pots were arranged in randomised blocks in a glasshouse and watered as necessary. After 12 days the plants were assessed for percentage phytotoxicity (reduction in green area compared with unsprayed plants) (0 = no effect 100 = complete destruction).
E = X + Y […] where E, X and Y are percentage phytotoxicity.
The ED values were then used to plot an isobole according to the method of P.M.L. Tammes op cit. The results of percentage phytotoxicity, the ED₂₀ values calculated from them and the calculated expected value are given in Table 9.

Amaranthus retroflexus = test: Experiment 3: glasshouse, post-emergence, fresh weight after 19 days, % inhibition of growth; format: in vivo; settings: 2-4 leaves
Experimental: (§1) A series of experiments was carried out to determine the nature of the biological interaction between atrazine and five compounds of general formula I on a range of weed species. […] The growth stages of the plants at spraying are also presented with the results. Agricultural surfactant (nonyl phenol ethylene oxide condensate containing 9 moles ethylene oxide marketed as 'Agral') was added to all spray dilutions to give 0.2% v/v concentration. […] After 19 days the fresh weight of vegetation in each pot was determined. […] E = […]00003:character} where E, X and Y are percentage inhibition of growth. In addition, the ED50 or ED90 values (the application rates giving 50% or 90% inhibition of growth, respectively) were calculated from the results for the piperidinedione alone and with increasing rates of atrazine.

Brassica kaber = test: as above; format: in vivo; settings: 2-3 leaves
Experimental: as §1

Sesbania exactata = test: as above; format: in vivo; settings: 2 leaves
Experimental: as §1

Bidens pilosa = test: as above; format: in vivo; settings: 2 leaves
Experimental: as §1

Solanum nigrum = test: as above; format: in vivo; settings: 1-2 leaves
Experimental: as §1

Eleusine indica [2] = test: as above; format: in vivo; settings: 3 leaves
Experimental: as §1

Xanthium strumarium = test: as above; format: in vivo; settings: 2 leaves
Experimental: as §1

Digitaria sanguinalis = test: as above; format: in vivo; settings: 3 leaves
Experimental: as §1

Structure (SMILES): O=C1CCNC(=O)C1C(=O)c1ccc(C(F)(F)F)cc1[N+](=O)[O-] (stereo not drawn) [Compound 74, 3-(2-nitro-4-trifluoromethylbenzoyl)piperidine-2,4-dione]
- percentage phytotoxicity (Eleusine indica [1]; Compound 74 16 g/ha alone): 13%
- percentage phytotoxicity (Eleusine indica [1]; Compound 74 31 g/ha alone): 12%
- percentage phytotoxicity (Eleusine indica [1]; Compound 74 63 g/ha alone): 40%
- percentage phytotoxicity (Eleusine indica [1]; Compound 74 125 g/ha alone): 50%
- percentage phytotoxicity (Eleusine indica [1]; Compound 74 250 g/ha alone): 77%
- ED₅₀ (Eleusine indica [1]; Compound 74 alone, 50% phytotoxicity): 101 g/ha
- % crop phytotoxicity Maize (3 leaves) (maize var.Irla; Compound 74 63 g/ha): 1%
- % crop phytotoxicity Maize (3 leaves) (maize var.Irla; Compound 74 125 g/ha): 3%
- % crop phytotoxicity Maize (3 leaves) (maize var.Irla; Compound 74 250 g/ha): 6%
- % crop phytotoxicity Maize (3 leaves) (maize var.Irla; Compound 74 500 g/ha): 10%
- % crop phytotoxicity Maize (3 leaves) (maize var.Irla; Compound 74 1000 g/ha): 30%
- % crop phytotoxicity Maize (3 leaves) (maize var.Irla; Compound 74 2000 g/ha): 58%
- ED₂₀ (maize var.Irla; Compound 74 alone): ED₂₀(g/ha) 601
- inhibition at 2 g/ha (Amaranthus retroflexus; Amaranthus retroflexus, post-emergence, Compound 74 2 g/ha alone): 27%
- inhibition at 4 g/ha (Amaranthus retroflexus; Amaranthus retroflexus, post-emergence, Compound 74 4 g/ha alone): 47%
- inhibition at 8 g/ha (Amaranthus retroflexus; Amaranthus retroflexus, post-emergence, Compound 74 8 g/ha alone): 69%
- inhibition at 16 g/ha (Amaranthus retroflexus; Amaranthus retroflexus, post-emergence, Compound 74 16 g/ha alone): 76%
- inhibition at 31 g/ha (Amaranthus retroflexus; Amaranthus retroflexus, post-emergence, Compound 74 31 g/ha alone): 86%
- inhibition at 63 g/ha (Amaranthus retroflexus; Amaranthus retroflexus, post-emergence, Compound 74 63 g/ha alone): 90%
- ED₉₀ (Amaranthus retroflexus; Compound 74 alone): ED₉₀(g/ha) 46.43
- ED₅₀ (Brassica kaber; Compound 74 alone): ED₅₀(g/ha) 10.3
- inhibition at 2 g/ha (Brassica kaber; Mutarda arvensis, post-emergence, Compound 74 2 g/ha alone): 19%
- inhibition at 4 g/ha (Brassica kaber; Mutarda arvensis, post-emergence, Compound 74 4 g/ha alone): 20%
- inhibition at 8 g/ha (Brassica kaber; Mutarda arvensis, post-emergence, Compound 74 8 g/ha alone): 32%
- inhibition at 16 g/ha (Brassica kaber; Mutarda arvensis, post-emergence, Compound 74 16 g/ha alone): 61%
- inhibition at 31 g/ha (Brassica kaber; Mutarda arvensis, post-emergence, Compound 74 31 g/ha alone): 72%
- inhibition at 63 g/ha (Brassica kaber; Mutarda arvensis, post-emergence, Compound 74 63 g/ha alone): 96%
- ED₉₀ (Sesbania exactata; Compound 74 alone): ED₉₀(g/ha)375.45
- inhibition at 8 g/ha (Sesbania exactata; Sesbania, post-emergence, Compound 74 8 g/ha alone): 65%
- inhibition at 16 g/ha (Sesbania exactata; Sesbania, post-emergence, Compound 74 16 g/ha alone): 73%
- inhibition at 31 g/ha (Sesbania exactata; Sesbania, post-emergence, Compound 74 31 g/ha alone): 61%
- inhibition at 125 g/ha (Sesbania exactata; Sesbania, post-emergence, Compound 74 125 g/ha alone): 84%
- inhibition at 163 g/ha (Sesbania exactata; Sesbania, post-emergence, Compound 74 163 g/ha alone): 80%
- inhibition at 250 g/ha (Sesbania exactata; Sesbania, post-emergence, Compound 74 250 g/ha alone): 79%
- inhibition at 8 g/ha (Bidens pilosa; Bidens pilosa, post-emergence, Compound 74 8 g/ha alone): 0%
- inhibition at 16 g/ha (Bidens pilosa; Bidens pilosa, post-emergence, Compound 74 16 g/ha alone): 0%
- inhibition at 31 g/ha (Bidens pilosa; Bidens pilosa, post-emergence, Compound 74 31 g/ha alone): 0%
- inhibition at 125 g/ha (Bidens pilosa; Bidens pilosa, post-emergence, Compound 74 125 g/ha alone): 48%
- inhibition at 163 g/ha (Bidens pilosa; Bidens pilosa, post-emergence, Compound 74 163 g/ha alone): 15%
- inhibition at 250 g/ha (Bidens pilosa; Bidens pilosa, post-emergence, Compound 74 250 g/ha alone): 75%
- ED₅₀ (Bidens pilosa; Compound 74 alone): ED₅₀(g/ha)141.27
- ED₉₀ (Solanum nigrum; Compound 74 alone): ED₉₀(g/ha) 41.13
- inhibition at 2 g/ha (Solanum nigrum; Solanum nigrum, post-emergence, Compound 74 2 g/ha alone): 15%
- inhibition at 4 g/ha (Solanum nigrum; Solanum nigrum, post-emergence, Compound 74 4 g/ha alone): 30%
- inhibition at 8 g/ha (Solanum nigrum; Solanum nigrum, post-emergence, Compound 74 8 g/ha alone): 39%
- inhibition at 16 g/ha (Solanum nigrum; Solanum nigrum, post-emergence, Compound 74 16 g/ha alone): 60%
- inhibition at 31 g/ha (Solanum nigrum; Solanum nigrum, post-emergence, Compound 74 31 g/ha alone): 82%
- inhibition at 63 g/ha (Solanum nigrum; Solanum nigrum, post-emergence, Compound 74 63 g/ha alone): 94%
- ED₅₀ (Eleusine indica [2]; Compound 74 alone): ED₅₀ (g/ha) 72.43
- inhibition at 16 g/ha (Eleusine indica [2]; Eleusine indica, post-emergence, Compound 74 16 g/ha alone): 0%
- inhibition at 31 g/ha (Eleusine indica [2]; Eleusine indica, post-emergence, Compound 74 31 g/ha alone): 26%
- inhibition at 63 g/ha (Eleusine indica [2]; Eleusine indica, post-emergence, Compound 74 63 g/ha alone): 55%
- inhibition at 125 g/ha (Eleusine indica [2]; Eleusine indica, post-emergence, Compound 74 125 g/ha alone): 84%
- inhibition at 250 g/ha (Eleusine indica [2]; Eleusine indica, post-emergence, Compound 74 250 g/ha alone): 96%
- inhibition at 500 g/ha (Eleusine indica [2]; Eleusine indica, post-emergence, Compound 74 500 g/ha alone): 95%
- ED₉₀ (Xanthium strumarium; Compound 74 alone): ED₉₀(g/ha) 166.99
- inhibition at 8 g/ha (Xanthium strumarium; Xanthium strumarium, post-emergence, Compound 74 8 g/ha alone): 55%
- inhibition at 16 g/ha (Xanthium strumarium; Xanthium strumarium, post-emergence, Compound 74 16 g/ha alone): 45%
- inhibition at 31 g/ha (Xanthium strumarium; Xanthium strumarium, post-emergence, Compound 74 31 g/ha alone): 74%
- inhibition at 125 g/ha (Xanthium strumarium; Xanthium strumarium, post-emergence, Compound 74 125 g/ha alone): 86%
- inhibition at 163 g/ha (Xanthium strumarium; Xanthium strumarium, post-emergence, Compound 74 163 g/ha alone): 79%
- inhibition at 250 g/ha (Xanthium strumarium; Xanthium strumarium, post-emergence, Compound 74 250 g/ha alone): 92%
- ED₉₀ (Digitaria sanguinalis; Compound 74 alone): ED₉₀ (g/ha) 75.46
- inhibition at 16 g/ha (Digitaria sanguinalis; Digitaria sanguinalis, post-emergence, Compound 74 16 g/ha alone): 55%
- inhibition at 31 g/ha (Digitaria sanguinalis; Digitaria sanguinalis, post-emergence, Compound 74 31 g/ha alone): 75%
- inhibition at 63 g/ha (Digitaria sanguinalis; Digitaria sanguinalis, post-emergence, Compound 74 63 g/ha alone): 88%
- inhibition at 125 g/ha (Digitaria sanguinalis; Digitaria sanguinalis, post-emergence, Compound 74 125 g/ha alone): 96%
- inhibition at 250 g/ha (Digitaria sanguinalis; Digitaria sanguinalis, post-emergence, Compound 74 250 g/ha alone): 99%
- inhibition at 500 g/ha (Digitaria sanguinalis; Digitaria sanguinalis, post-emergence, Compound 74 500 g/ha alone): 100%
